Assay results from US20230123334A1, “AMINO LIPID COMPOUND, PREPARATION METHOD THEREFOR, AND APPLICATION THEREOF” (SHENZHEN SHENXIN BIOTECHNOLOGY CO., LTD., priority 2020, published 2023).

Assays:
HEK293 cells [1] = assay: Preliminary screening as mRNA vectors, EGFP mRNA transfection of HEK293 cells; format: cell-based; conditions: HEK293 cells, 96-well plates, EGFP mRNA 50 ng per well; percentage of GFP fluorescent cells relative to total number of cells (Hoechst)
How it was run: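 Screening format: EGFP mRNA transfection (50 ng/well) into HEK293 in 10% FBS-supplemented DMEM. Percent green fluorescent cells, normalised to Hoechst nuclear count, gave the value; Lipofectamine2000 was the reference transfectant.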

HEK293 cells [2] = assay: Preliminary screening as DNA vectors, GFP transfection of HEK293 cells; format: cell-based; conditions: HEK293 cells; lipid/DOPE liposome with 75 ng plasmid DNA (psin-EGFP-IRES-Puro); number of cells expressing GFP divided by total number of nuclei (Hoechst)
How it was run: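 First, amino lipid and DOPE were vortexed in sodium acetate buffer (pH 5.6) to form liposomes. Next, these were held with 75 ng EGFP plasmid at room temperature for 30 min. Finally, HEK293 cells were added, cultured at 37° C., Hoechst-stained, and GFP+/total nuclei scored by imaging.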

| Compound | Absolute mRNA transfection efficiency in HEK293 cells (HEK293 cells [1]) | Absolute DNA transfection efficiency in HEK293 cells (HEK293 cells [2]) |
| --- | --- | --- |
| CCCCCCCCCCCCCCCCNc1nc(NCCCCCCCC)nc(NCCCN2CCN(C)CC2)n1 [Compound N8N16D9] | 0.5% | 1.0% |
| CCCCCCCCCCCCSc1nc(NCCCN2CCOCC2)nc(SCCCCCCCCCCCC)n1 [Compound S12S12D8] | 3.8% | 3.4% |
| CCCCCCCCCCCCCNc1nc(NCCCCCCC)nc(NCCCN2CCOCC2)n1 [Compound N7N13D8] | 0.1% | 0.0% |
| CCCCCCCCCCCCSc1nc(NCCCN2CCN(C)CC2)nc(SCCCCCCCCCCC)n1 [Compound S11S12D9] | 4.2% | 2.4% |
| CCCCCCCCCCCCCCCCCCSc1nc(NCC2CCN(C)CC2)nc(SCCCCCCCCCCCCCCCCCC)n1 [Compound S18S18D10] | 0.0% | 0.0% |
| CCCCCCCCCCCCCCCSc1nc(NCCN2CCOCC2)nc(SCCCCCCCCCCCCCC)n1 [Compound S14S15D2] | 0.0% | 0.1% |
| CCCCCCCCCCCCCCCCNc1nc(NCCCCCCCCCCCC)nc(NCCN(CC)CC)n1 [Compound N12N16D7] | 0.3% | 0.4% |
| CCCCCCCCCCCCCCCNc1nc(NCCCCCCCCC)nc(NCCN(CC)CC)n1 [Compound N9N15D7] | 0.8% | 0.0% |
| CCCCCCCCCCCCCCCNc1nc(NCCCCCCCCCCCCCCC)nc(NCCN2CCOCC2)n1 [Compound N15N15D2] | 0.0% | 0.0% |
| CCCCCCCCCNc1nc(NCCCCCC)nc(NCCN2CCCC2)n1 [Compound N6N9D3] | 0.4% | 0.3% |
| CCCCCCCCCCCNc1nc(NCCCCCC)nc(NCCN2CCN(C)CC2)n1 [Compound N6N11D5] | 0.5% | 0.1% |
| CCCCCCCCCNc1nc(NCCCCCCCC)nc(NCCN(C)C)n1 [Compound N8N9D1] | 0.8% | 0.0% |
| CCCCCCCCCCCCCCCCNc1nc(NCCCCCC)nc(NCCN(CC)CC)n1 [Compound N6N16D7] | 0.5% | 0.0% |
| CCCCCCCCCCCSc1nc(NCCCN(C)C)nc(SCCCCCCCCCCC)n1 [Compound S11S11D6] | 25.4% | 10.9% |
| CCCCCCCCCCCCCCCCSc1nc(NCCN2CCOCC2)nc(SCCCCCCCC)n1 [Compound S8S16D2] | 0.2% | 15.7% |
| CCCCCCCCCCCSc1nc(NCCCN2CCOCC2)nc(SCCCCCCCCCC)n1 [Compound S10S11D8] | 8.3% | 16.4% |
| CCCCCCCCCCCCCCCCCCNc1nc(NCCCCCC)nc(NCCCN(C)C)n1 [Compound N6N18D6] | 0.1% | 1.8% |
| CCCCCCCCCCCCSc1nc(NCCN(CC)CC)nc(SCCCCCCCCCCCC)n1 [Compound S12S12D7] | 1.3% | 3.3% |
| CCCCCCCCCCCCCCSc1nc(NCCCN2CCN(C)CC2)nc(SCCCCCCCCCCCCCC)n1 [Compound S14S14D9] | 0.0% | 0.0% |

| Compound | Absolute mRNA transfection efficiency in HEK293 cells (HEK293 cells [1]) | Absolute DNA transfection efficiency in HEK293 cells (HEK293 cells [2]) |
| --- | --- | --- |
| CCCCCCCCCCCCCNc1nc(NCCCCCC)nc(NCCN2CCCC2)n1 [Compound N6N13D3] | 1.0% | 0.5% |
| CCCCCCCCCCCCN(CCCCCCCCCCCC)c1nc(NCCCCCC)nc(NCCCN2CCN(C)CC2)n1 [N6^2N12D9] | 0.0% | 0.0% |
| CCCCCCCCCCCCCCSc1nc(NCCCN(C)C)nc(SCCCCCCCCCCC)n1 [Compound S11S14D6] | 30.0% | 6.6% |
| CCCCCCCCCCCCNc1nc(NCCCN2CCN(C)CC2)nc(N(CCCCCCCCCCCC)CCCCCCCCCCCC)n1 [N12^2N12D9] | 0.7% | 3.0% |
| CCCCCCCNc1nc(NCCCCCCC)nc(NCCN2CCOCC2)n1 [Compound N7N7D2] | 0.0% | 0.0% |
| CCCCCCCCNc1nc(NCCCCCC)nc(NCCN2CCN(C)CC2)n1 [Compound N6N8D5] | 0.0% | 0.0% |
| CCCCCCCCCCCCNc1nc(NCCCCCCCCCCCC)nc(NCCN(CC)CC)n1 [Compound N12N12D7] | 0.6% | 0.1% |
| CCCCCCCCCCCCCCCSc1nc(NCCN(CC)CC)nc(SCCCCCCCCCCCCCC)n1 [Compound S14S15D7] | 0.4% | 0.6% |
| CCCCCCCCCCCCCCCCCCNc1nc(NCCCCCCCCCCCC)nc(NCCN(CC)CC)n1 [Compound N12N18D7] | 1.4% | 1.2% |
| CCCCCCCCCCCCCCSc1nc(NCCN2CCOCC2)nc(SCCCCCCCCCC)n1 [Compound S10S14D2] | 0.2% | 1.5% |
| CCCCCCCCCCCCCCCCNc1nc(NCCN(CC)CC)nc(N(CCCCCCCCCCCC)CCCCCCCCCCCC)n1 [N16^2N12D7] | 3.0% | 1.1% |
| CCCCCCCCCCCSc1nc(NCCN(C)C)nc(SCCCCCCCCCCC)n1 [Compound S11S11D1] | 12.9% | 1.3% |
| CCCCCCCCCCCCN(CCCCCCCCCCCC)c1nc(NCCCCCCC)nc(NCCN(C)C)n1 [N7^2N12D1] | 3.5% | 3.6% |
| CCCCCCCCCCCCCCCCNc1nc(NCCCCCCCC)nc(NCCN2CCCC2)n1 [Compound N8N16D3] | 13.8% | 8.5% |
| CCCCCCCCCCCCCCCSc1nc(NCCN2CCOCC2)nc(SCCCCCCCC)n1 [Compound S8S15D2] | 0.0% | 10.8% |
| CCCCCCCCCCCCCCCNc1nc(NCCCCCCCC)nc(NCCN2CCN(C)CC2)n1 [Compound N8N15D5] | 0.2% | 0.6% |
| CCCCCCCCCCCCSc1nc(NCC2CCN(C)CC2)nc(SCCCCCCCCCCCC)n1 [Compound S12S12D10] | 12.8% | 2.7% |
| CCCCCCCCCCCCCCCCSc1nc(NCCCN(C)C)nc(SCCCCCCCCCC)n1 [Compound S10S16D6] | 41.6% | 14.1% |
